Source: patent publication US5690957A, “Prostaglandin derivatives” (Ono Pharmaceutical Co., Ltd., priority 1995, dated 1997)

Legend:
[1] = Hypotensive effect in anesthetized rats (carotid artery blood pressure); type: in vivo; details: rat; for Hypotensive effect, Maximum hypotension on dose (A): at dose (A) giving AUC = 771, i.v.; for Hypotensive effect, Maximum hypotension: i.v.
Description: (§1) The blood flow increasing effect and hypotensive effect of the compounds of the present invention were determined by the following experiment.
(§2) Male rats weighing 200-350 g were anesthetized with urethane (25% urethane, 6 ml/kg, s.c.). The carotid artery and jugular vein were cannulated with polyethylene tubes for measurement of blood pressure and for drug injection, respectively. Blood pressure was obtained with a disposable pressure transducer kit (Spectramed, Ltd) and recorded with a recticoder (model RJG-4128, Nihon kohden, Ltd). Blood flow was monitored as cutaneous blood flow of the dorsum pedis using an attachment-type laser-Doppler flowmeter (model ALF21, Advance, Ltd). Measurements were taken until the values recovered to the level observed before injection of drugs. Injection time was about 10 seconds. The hypotensive effect and blood flow increasing effect were calculated as the maximal hypotensive activity (mmHg) and the area under the curve (AUC) after injection of drugs, respectively.
(§3) The results were represented by the dose required to obtain an effective increase in blood flow (main effect), and by the hypotensive effect (side effect) at the same dose.
(§4) The compounds of the present invention were administered in the form of a liposome formulation (as prepared in Example 4 below). As a comparative compound, PGE1 1-decanoyloxyethyl ester (described in Example 10 of the specification of Japanese Patent Kokai No. 59-206349) was administered in the form of a lipid emulsion (prepared in Reference Example 8 in the present specification).

[2] = Blood flow increasing effect in anesthetized rats (laser-Doppler cutaneous blood flow, AUC); type: in vivo; details: i.v., rat
Description: as §1, §2, §3, §4
The effectiveness of increasing blood flow was determined by the following method. […] In the above-described experimental assessment system for the compounds of the present invention, the AUG for this PGE1 lipid emulsion (5 μg/kg, i.v.) was 771 on the blood flow increasing effect; thus this value was chosen as an effective value for increase in blood flow.

[3] = Examples as liposome formulation, comparative compound as lipid emulsion
[4] = dose 1 μg/kg, Examples as liposome formulation, comparative compound as lipid emulsion
[5] = dose 3 μg/kg, Examples as liposome formulation, comparative compound as lipid emulsion
[6] = dose 10 μg/kg, Examples as liposome formulation, comparative compound as lipid emulsion
[7] = dose 30 μg/kg, liposome formulation

SMILES	Hypotensive effect, Maximum hypotension on dose (A) [1, 3]	Hypotensive effect, Maximum hypotension [1, 4]	Hypotensive effect, Maximum hypotension [1, 5]	Hypotensive effect, Maximum hypotension [1, 6]	Blood flow increasing effect, Total AUC [2, 4]	Blood flow increasing effect, Total AUC [2, 5]	Blood flow increasing effect, Total AUC [2, 6]	Blood flow increasing effect, Dose (A) required to obtain AUC = 771 [2, 3]	Hypotensive effect, Maximum hypotension [1, 7]	Blood flow increasing effect, Total AUC [2, 7]
CCCCCCCCCC(=O)OC(C)OC(=O)CCCCCC[C@H]1C(=O)C[C@@H](O)[C@@H]1/C=C/[C@@H](O)CCCCC (some centres unmarked) [Comparative compound, PGE1 1-decanoyloxyethyl ester, reference compound]	30.2 mmHG	1 mmHg	9 mmHg	18 mmHg	92	222	498	16.70 µg/kg		
CCCCCCCCCCCC(=O)OCCOC(=O)CCCCCC[C@H]1C(=O)C[C@@H](O)[C@@H]1/C=C/[C@@H](O)CCCCC [Example 1, PGE1 (dodecanoyloxy)ethyl ester]	4.3 mmHG	3 mmHg	7 mmHg	13 mmHg	175	1914	3528	1.47 µg/kg		
CCCCCCCCCCCCCCCCOCC(=O)OCCOC(=O)CCCCCC[C@H]1C(=O)C[C@@H](O)[C@@H]1/C=C/[C@@H](O)CCCCC [Example 2, PGE1 2-(hexadecyloxyacetoxy)ethyl ester]	6.1 mmHG		3 mmHg	7 mmHg		329	807	8.14 µg/kg	20 mmHg	3248
CCCCCCCCCCCCOCC(=O)OCCOC(=O)CCCCCC[C@H]1C(=O)C[C@@H](O)[C@@H]1/C=C/[C@@H](O)CCCCC [Example 3, PGE1 2-(dodecyloxyacetoxy)ethyl ester]	2.8 mmHG	2 mmHg	9 mmHg	9 mmHg	227	4028	5391	1.14 µg/kg		
